Measurements: patent US8614327B2 (Vertex Pharmaceuticals Incorporated, priority 2004, dated 2013)

Target: T1, ΔF508-CFTR (Homo sapiens, UniProt P13569, DEL508-508)
T1 construct: expressed in transfected cells
Experiment: Membrane potential optical (FRET/VIPR) assay, identification of potentiator compounds
Assay type: cell-based
Conditions: Table 3, assay not given; for % Activity: relative efficacy
In short: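 NIH3T3 mouse fibroblasts stably expressing ΔF508-CFTR, temperature-corrected 24 h at 27° C., read on VIPR by FRET between CC2-DMPE and DiSBAC2(3). Potentiators identified in a double-addition format, first adding chloride-free (gluconate) medium with or without compound.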

T1 sequence (P13569 with tags, fused parts or gaps DEL508-508): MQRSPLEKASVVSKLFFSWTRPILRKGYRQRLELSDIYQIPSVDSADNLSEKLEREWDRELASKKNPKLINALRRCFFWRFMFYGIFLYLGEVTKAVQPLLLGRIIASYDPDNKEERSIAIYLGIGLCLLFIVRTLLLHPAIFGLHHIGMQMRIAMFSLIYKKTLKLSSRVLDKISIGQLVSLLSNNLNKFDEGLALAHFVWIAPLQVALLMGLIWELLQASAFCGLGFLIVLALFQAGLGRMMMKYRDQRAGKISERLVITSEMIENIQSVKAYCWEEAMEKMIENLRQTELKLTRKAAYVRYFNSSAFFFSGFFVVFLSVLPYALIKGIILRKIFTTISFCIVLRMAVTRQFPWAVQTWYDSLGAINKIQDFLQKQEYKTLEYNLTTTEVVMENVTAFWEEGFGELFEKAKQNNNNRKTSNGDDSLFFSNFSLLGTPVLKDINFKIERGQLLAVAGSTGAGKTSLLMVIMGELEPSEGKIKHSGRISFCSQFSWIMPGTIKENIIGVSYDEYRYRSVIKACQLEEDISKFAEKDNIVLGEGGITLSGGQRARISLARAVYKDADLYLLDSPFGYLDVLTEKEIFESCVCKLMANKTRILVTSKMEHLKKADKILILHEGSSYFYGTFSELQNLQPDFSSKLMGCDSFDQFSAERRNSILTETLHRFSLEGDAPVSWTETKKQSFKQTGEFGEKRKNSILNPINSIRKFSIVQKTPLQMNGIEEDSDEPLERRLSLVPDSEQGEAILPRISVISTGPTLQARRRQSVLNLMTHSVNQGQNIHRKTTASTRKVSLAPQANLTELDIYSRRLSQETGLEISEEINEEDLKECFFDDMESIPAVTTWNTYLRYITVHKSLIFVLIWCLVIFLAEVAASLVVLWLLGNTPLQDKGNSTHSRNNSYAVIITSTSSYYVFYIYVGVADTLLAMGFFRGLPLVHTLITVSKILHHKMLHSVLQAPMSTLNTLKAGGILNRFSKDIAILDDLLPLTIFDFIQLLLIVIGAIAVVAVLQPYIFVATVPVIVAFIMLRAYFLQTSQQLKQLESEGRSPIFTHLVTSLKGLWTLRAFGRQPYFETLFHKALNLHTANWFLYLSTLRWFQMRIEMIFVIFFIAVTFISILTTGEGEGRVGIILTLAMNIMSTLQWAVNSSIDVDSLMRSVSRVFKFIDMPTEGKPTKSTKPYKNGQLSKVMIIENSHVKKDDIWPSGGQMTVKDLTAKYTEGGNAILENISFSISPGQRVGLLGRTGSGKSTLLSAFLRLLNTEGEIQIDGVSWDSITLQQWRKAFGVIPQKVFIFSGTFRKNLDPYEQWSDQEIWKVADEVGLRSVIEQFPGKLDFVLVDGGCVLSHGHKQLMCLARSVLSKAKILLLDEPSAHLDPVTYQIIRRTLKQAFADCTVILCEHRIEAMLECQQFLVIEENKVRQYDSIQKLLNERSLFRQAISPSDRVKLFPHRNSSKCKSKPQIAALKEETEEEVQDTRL

| SMILES | EC50 [µM] | % Activity |
| --- | --- | --- |
| COc1nc2ccccc2c(OC)c1C(=O)Nc1ccccc1C(C)(C)C [Compound 296, 2,4-dimethoxy-N-(2-tert-butylphenyl)-quinoline-3-carboxamide] | 10 to 25 | ++ (between 25% to 100%) |
| O=C(Nc1ccccc1-c1ccc2[nH]ccc2c1)c1c[nH]c2ccccc2c1=O [Compound 118, N-[2-(1H-indol-5-yl)phenyl]-4-oxo-1H-quinoline-3-carboxamide] |  | ++ (between 25% to 100%) |
| O=C(Nc1ccc2[nH]nnc2c1)c1c[nH]c2ccccc2c1=O [Compound 256, N-(1H-benzotriazol-5-yl)-4-oxo-1H-quinoline-3-carboxamide] | 25 to 60 | + (<25%) |
| N#Cc1ccc(NC(=O)c2c[nH]c3ccccc3c2=O)cc1 [Compound 194, N-(4-cyanophenyl)-4-oxo-1H-quinoline-3-carboxamide] | 25 to 60 | + (<25%) |
| O=C(Nc1nc2ccccc2[nH]1)c1c[nH]c2ccccc2c1=O [Compound 216, N-(3H-benzoimidazol-2-yl)-4-oxo-1H-quinoline-3-carboxamide] | 25 to 60 | + (<25%) |
| O=C(Nc1ccc(CO)cc1)c1c[nH]c2ccccc2c1=O [Compound 209, N-[4-(hydroxymethyl)phenyl]-4-oxo-1H-quinoline-3-carboxamide] | 10 to 25 | ++ (between 25% to 100%) |
| CCOC(=O)Nc1ccc(CC)c(NC(=O)c2c[nH]c3ccccc3c2=O)c1 [Compound 472, [4-ethyl-3-[(4-oxo-1H-quinolin-3-yl)carbonylamino]phenyl]aminoformic acid ethyl ester] |  | ++ (between 25% to 100%) |
| CC(C)(C)c1cc(C(C)(C)C)c(NC(=O)c2c[nH]c3ccc(C(F)(F)F)cc3c2=O)cc1O [Compound 515, N-(5-hydroxy-2,4-ditert-butyl-phenyl)-4-oxo-6-(trifluoromethyl)-1H-quinoline-3-carboxamide] |  | + (<25%) |
| CC(=O)Nc1ccc(C(C)(C)C)c(NC(=O)c2c[nH]c3ccccc3c2=O)c1 [Compound 316, N-(5-acetylamino-2-tert-butyl-phenyl)-4-oxo-1H-quinoline-3-carboxamide] | 10 to 25 | ++ (between 25% to 100%) |
| O=C(Nc1cc2[nH]ccc2cc1-c1cccnc1)c1c[nH]c2ccccc2c1=O [Compound 65, 4-oxo-N-[5-(3-pyridyl)-1H-indol-6-yl]-1H-quinoline-3-carboxamide] | < 10 | ++ (between 25% to 100%) |
| CCc1ccc(NC)cc1NC(=O)c1c[nH]c2ccccc2c1=O [Compound 157, N-(2-ethyl-5-methylamino-phenyl)-4-oxo-1H-quinoline-3-carboxamide] | < 10 | ++ (between 25% to 100%) |

Now from value to compound:

| EC50 [µM] | % Activity | SMILES |
| --- | --- | --- |
| < 10 | ++ (between 25% to 100%) | CC(C)c1ccccc1NC(=O)c1c[nH]c2ccccc2c1=O [Compound 36, N-(2-isopropylphenyl)-4-oxo-1H-quinoline-3-carboxamide] |
| < 10 | ++ (between 25% to 100%) | CC(C)(C)c1cc(C(C)(C)C)c(NC(=O)c2c[nH]c3cc(F)c(F)cc3c2=O)cc1O [Compound 672, 6,7-difluoro-N-(5-hydroxy-2,4-ditert-butyl-phenyl)-4-oxo-1H-quinoline-3-carboxamide] |
| < 10 | ++ (between 25% to 100%) | O=C(Nc1cccnc1Oc1ccccc1F)c1c[nH]c2ccccc2c1=O [Compound 435, N-[2-(2-fluorophenoxy)-3-pyridyl]-4-oxo-1H-quinoline-3-carboxamide] |
| < 10 | ++ (between 25% to 100%) | CCCc1ccc(NC(=O)OC)cc1NC(=O)c1c[nH]c2ccccc2c1=O [Compound 471, [3-[(4-oxo-1H-quinoline-3-yl)carbonylamino]-4-propyl-phenyl]aminoformic acid methyl ester] |
| < 10 | ++ (between 25% to 100%) | CC1CCN(c2ccc(NC(=O)c3c[nH]c4ccccc4c3=O)c(C(F)(F)F)c2)C1 (stereo not shown) [Compound 555, N-[4-(3-methylpyrrolidin-1-yl)-2-(trifluoromethyl)phenyl]-4-oxo-1H-quinoline-3-carboxamide] |
| < 10 | + (<25%) | CC(C)(C)c1cc(C(C)(C)C)c(NC(=O)c2c[nH]c3c(C(F)(F)F)cccc3c2=O)cc1O [Compound 580, N-(5-hydroxy-2,4-ditert-butyl-phenyl)-4-oxo-8-(trifluoromethyl)-1H-quinoline-3-carboxamide] |
| < 10 | ++ (between 25% to 100%) | CC(C)(C)OC(=O)N1CCc2c(cccc2NC(=O)c2c[nH]c3ccccc3c2=O)C1 [Compound 427, 5-[(4-oxo-1H-quinolin-3-yl)carbonylamino]-1,2,3,4-tetrahydroisoquinoline-2-carboxylic acid tert-butyl ester] |
| < 10 | + (<25%) | Cc1cccc2c(=O)c(C(=O)Nc3cc(O)c(C(C)(C)C)cc3C(C)(C)C)c[nH]c12 [Compound 621, N-(5-hydroxy-2,4-ditert-butyl-phenyl)-8-methyl-4-oxo-1H-quinoline-3-carboxamide] |
| < 10 | +++ (>100%) | O=C(Nc1ccccc1-c1ccc(Oc2ccccc2)cc1)c1c[nH]c2ccccc2c1=O [Compound 410, 4-oxo-N-[2-(4-phenoxyphenyl)phenyl]-1H-quinoline-3-carboxamide] |
| < 10 | ++ (between 25% to 100%) | COc1ccc2[nH]cc(C(=O)Nc3cc(O)c(C(C)(C)C)cc3C(C)(C)C)c(=O)c2c1 [Compound 496, N-(5-hydroxy-2,4-ditert-butyl-phenyl)-6-methoxy-4-oxo-1H-quinoline-3-carboxamide] |
| < 10 | ++ (between 25% to 100%) | O=C(Nc1ccccc1-c1cccc(OC(F)(F)F)c1)c1c[nH]c2ccccc2c1=O [Compound 253, 4-oxo-N-[2-[3-(trifluoromethoxy)phenyl]phenyl]-1H-quinoline-3-carboxamide] |
| < 10 | ++ (between 25% to 100%) | CC(C)(C)c1cc(F)c(NC(=O)c2c[nH]c3cc(F)c(F)cc3c2=O)cc1O [Compound 486, 6,7-difluoro-N-(2-fluoro-5-hydroxy-4-tert-butyl-phenyl)-4-oxo-1H-quinoline-3-carboxamide] |
| < 10 | ++ (between 25% to 100%) | CC(C)(C)c1cc(C(C)(C)C)c(NC(=O)c2c[nH]c3cccc(O)c3c2=O)cc1O [Compound 464, 5-hydroxy-N-(5-hydroxy-2,4-ditert-butyl-phenyl)-4-oxo-1H-quinoline-3-carboxamide] |
| < 10 | ++ (between 25% to 100%) | Cc1cccc2[nH]cc(C(=O)Nc3ccc(N4CCCC(C)C4)cc3C(F)(F)F)c(=O)c12 (stereo not shown) [Compound 643, 5-methyl-N-[4-(3-methyl-1-piperidyl)-2-(trifluoromethyl)phenyl]-4-oxo-1H-quinoline-3-carboxamide] |
| < 10 | ++ (between 25% to 100%) | O=C(Nc1ccc2cc[nH]c2c1)c1c[nH]c2cccc(O)c2c1=O [Compound 116, 5-hydroxy-N-(1H-indol-6-yl)-4-oxo-1H-quinoline-3-carboxamide] |
